Legend:
Assay type in all cases: biochemical
FLT3 (h) = target: T1, FLT3 (h) (Homo sapiens, UniProt P36888); assay: FLT3 (h) kinase assay
T1 construct: purchased Millipore UK Ltd (contract assay service)
T1 sequence (P36888 27-993): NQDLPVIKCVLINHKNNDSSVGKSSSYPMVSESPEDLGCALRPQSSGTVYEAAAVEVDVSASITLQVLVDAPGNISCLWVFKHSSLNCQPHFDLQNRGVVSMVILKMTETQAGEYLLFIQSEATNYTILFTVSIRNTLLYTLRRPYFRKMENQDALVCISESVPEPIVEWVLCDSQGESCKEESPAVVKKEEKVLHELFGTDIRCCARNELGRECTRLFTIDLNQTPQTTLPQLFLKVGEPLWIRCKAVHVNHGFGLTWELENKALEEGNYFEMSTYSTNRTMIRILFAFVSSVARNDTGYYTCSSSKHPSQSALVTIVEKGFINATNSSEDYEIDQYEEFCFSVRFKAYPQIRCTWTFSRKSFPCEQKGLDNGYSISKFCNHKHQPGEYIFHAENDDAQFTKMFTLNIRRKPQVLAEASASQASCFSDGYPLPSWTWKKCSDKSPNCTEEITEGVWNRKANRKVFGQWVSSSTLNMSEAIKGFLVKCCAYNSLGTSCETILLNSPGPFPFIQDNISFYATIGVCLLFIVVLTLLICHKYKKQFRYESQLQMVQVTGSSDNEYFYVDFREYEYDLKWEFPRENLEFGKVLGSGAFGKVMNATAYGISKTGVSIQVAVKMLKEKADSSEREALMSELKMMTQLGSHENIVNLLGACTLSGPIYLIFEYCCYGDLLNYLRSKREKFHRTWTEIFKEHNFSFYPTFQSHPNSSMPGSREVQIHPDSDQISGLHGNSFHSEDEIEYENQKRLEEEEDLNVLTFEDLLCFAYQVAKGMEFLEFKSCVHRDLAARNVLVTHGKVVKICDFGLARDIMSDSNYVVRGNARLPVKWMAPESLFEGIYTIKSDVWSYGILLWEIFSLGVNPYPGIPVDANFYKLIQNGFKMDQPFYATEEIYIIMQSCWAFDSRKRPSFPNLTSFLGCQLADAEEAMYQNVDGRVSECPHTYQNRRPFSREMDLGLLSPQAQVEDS
Protocol: (§1) Kinase assays can be performed by measurement of incorporation of γ-^33P ATP into immobilized myelin basic protein (MBP). High binding white 384 well plates (Greiner) are coated with MBP (Sigma #M-1891) by incubation of 60 μL/well of 20 μg/mL MBP in Tris-buffered saline (TBS; 50 mM Tris pH 8.0, 138 mM NaCl, 2.7 mM KCl) for 24 h at 4° C. Plates are washed 3× with 100 μL TBS. Kinase reactions are carried out in a total volume of 34 μL in kinase buffer (according to the need to make, for example, 5 mM Hepes pH 7.6, 15 mM NaCl, 0.01% bovine gamma globulin (Sigma #1-5506), 10 mM MgCl2, 1 mM DTT, 0.02% TritonX-100). Compound dilutions are performed in DMSO and added to assay wells to a final DMSO concentration of 1%. Each data point is measured in duplicate, and at least two duplicate assays are performed for each individual compound determination. […] A mixture of unlabeled ATP and γ-^33P ATP is added to start the reaction (2×10^6 cpm of γ-^33P ATP per well (3000 Ci/mmole) and 10 μM unlabeled ATP, typically. The reactions are carried out for 1 h at room temperature with shaking. Plates are washed 7× with TBS, followed by the addition of 50 µL/well scintillation fluid (Wallac). Plates are read using a Wallac Trilux counter. This is only one format of such assays; various other formats are possible, as known to one skilled in the art. […]

JAK1 (h) = target: T2, JAK1 (h) (Homo sapiens, UniProt P23458); assay: JAK1 (h) kinase assay
T2 construct: purchased Millipore UK Ltd (contract assay service)
Protocol: Kinase assays can be performed by measurement of incorporation of γ-^33P ATP into immobilized myelin basic protein (MBP). High binding white 384 well plates (Greiner) are coated with MBP (Sigma #M-1891) by incubation of 60 μL/well of 20 μg/mL MBP in Tris-buffered saline (TBS; 50 mM Tris pH 8.0, 138 mM NaCl, 2.7 mM KCl) for 24 h at 4° C. Plates are washed 3× with 100 μL TBS. Kinase reactions are carried out in a total volume of 34 μL in kinase buffer (according to the need to make, for example, 5 mM Hepes pH 7.6, 15 mM NaCl, 0.01% bovine gamma globulin (Sigma #1-5506), 10 mM MgCl2, 1 mM DTT, 0.02% TritonX-100). Compound dilutions are performed in DMSO and added to assay wells to a final DMSO concentration of 1%. Each data point is measured in duplicate, and at least two duplicate assays are performed for each individual compound determination. Enzyme is added to final concentrations of 10 nM or 20 nM, for example. A mixture of unlabeled ATP and γ-^33P ATP is added to start the reaction (2×10^6 cpm of γ-^33P ATP per well (3000 Ci/mmole) and 10 μM unlabeled ATP, typically. The reactions are carried out for 1 h at room temperature with shaking. Plates are washed 7× with TBS, followed by the addition of 50 µL/well scintillation fluid (Wallac). Plates are read using a Wallac Trilux counter. This is only one format of such assays; various other formats are possible, as known to one skilled in the art.
The above assay procedure can be used to determine the IC50 for inhibition and/or the inhibition constant, Ki. The IC50 is defined as the concentration of compound required to reduce the enzyme activity by 50% under the condition of the assay. The IC50 value is estimated by preparing a 10 point curve using a 1/2 log dilution series (for example, a typical curve may be prepared using the following compound concentrations: 3 μM, 1 μM, 0.3 μM, 0.1 μM, 0.03 μM, 0.01 μM, 0.003 μM, 0.001 μM, 0.0003 μM and 0 μM).
JAK1 (h) is incubated with 20 mM Tris/HCl pH 7.5, 0.2 mM EDTA, 500 μM GEEPLYWSFPAKKK, 10 mM MgAcetate and [γ-^33P-ATP] (specific activity approx. 500 cpm/pmol, concentration as required). The reaction is initiated by the addition of the MgATP mix. After incubation for 40 minutes at room temperature, the reaction is stopped by the addition of 3% phosphoric acid solution. 10 μL of the reaction is then spotted onto a P30 filtermat and washed three times for 5 minutes in 75 mM phosphoric acid and once in methanol prior to drying and scintillation counting.
The kinase assays described herein were performed at Millipore UK Ltd, Dundee Technology Park, Dundee DD2 1SW, UK.

JAK2 (h) = target: T3, JAK2 (h) (Homo sapiens, UniProt O60674); assay: JAK2 (h) kinase assay
T3 construct: purchased Millipore UK Ltd (contract assay service)
Protocol: as §1

T2 sequence (P23458 whole entry): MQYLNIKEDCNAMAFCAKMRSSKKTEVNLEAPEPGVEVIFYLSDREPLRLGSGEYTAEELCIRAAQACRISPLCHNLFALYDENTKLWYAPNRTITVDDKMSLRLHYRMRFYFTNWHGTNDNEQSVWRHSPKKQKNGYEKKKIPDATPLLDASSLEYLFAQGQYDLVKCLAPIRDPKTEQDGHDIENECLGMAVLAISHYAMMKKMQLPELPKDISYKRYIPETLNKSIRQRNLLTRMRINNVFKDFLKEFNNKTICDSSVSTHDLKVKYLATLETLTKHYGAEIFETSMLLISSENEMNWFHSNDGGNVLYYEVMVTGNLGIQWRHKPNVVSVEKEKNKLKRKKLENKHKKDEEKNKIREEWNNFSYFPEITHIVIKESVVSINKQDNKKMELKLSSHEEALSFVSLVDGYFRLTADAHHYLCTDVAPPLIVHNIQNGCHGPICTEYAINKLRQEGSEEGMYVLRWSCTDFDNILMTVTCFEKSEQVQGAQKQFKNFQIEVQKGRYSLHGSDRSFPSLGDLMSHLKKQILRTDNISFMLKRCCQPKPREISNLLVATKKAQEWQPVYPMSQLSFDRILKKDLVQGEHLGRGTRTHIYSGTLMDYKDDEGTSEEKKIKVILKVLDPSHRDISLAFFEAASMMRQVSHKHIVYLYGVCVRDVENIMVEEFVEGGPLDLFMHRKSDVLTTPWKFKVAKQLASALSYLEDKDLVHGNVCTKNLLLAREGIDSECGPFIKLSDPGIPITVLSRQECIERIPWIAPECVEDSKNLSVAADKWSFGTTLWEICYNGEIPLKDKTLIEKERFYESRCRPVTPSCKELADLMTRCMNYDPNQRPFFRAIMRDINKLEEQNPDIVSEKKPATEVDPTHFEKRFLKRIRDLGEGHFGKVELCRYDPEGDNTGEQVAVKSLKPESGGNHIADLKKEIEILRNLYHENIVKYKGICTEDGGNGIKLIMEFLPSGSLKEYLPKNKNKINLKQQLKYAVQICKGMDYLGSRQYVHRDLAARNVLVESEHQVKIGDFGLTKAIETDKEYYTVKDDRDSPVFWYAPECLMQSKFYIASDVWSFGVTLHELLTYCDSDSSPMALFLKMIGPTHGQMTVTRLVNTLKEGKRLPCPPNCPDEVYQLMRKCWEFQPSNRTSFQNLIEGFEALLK
T3 sequence (O60674 whole entry): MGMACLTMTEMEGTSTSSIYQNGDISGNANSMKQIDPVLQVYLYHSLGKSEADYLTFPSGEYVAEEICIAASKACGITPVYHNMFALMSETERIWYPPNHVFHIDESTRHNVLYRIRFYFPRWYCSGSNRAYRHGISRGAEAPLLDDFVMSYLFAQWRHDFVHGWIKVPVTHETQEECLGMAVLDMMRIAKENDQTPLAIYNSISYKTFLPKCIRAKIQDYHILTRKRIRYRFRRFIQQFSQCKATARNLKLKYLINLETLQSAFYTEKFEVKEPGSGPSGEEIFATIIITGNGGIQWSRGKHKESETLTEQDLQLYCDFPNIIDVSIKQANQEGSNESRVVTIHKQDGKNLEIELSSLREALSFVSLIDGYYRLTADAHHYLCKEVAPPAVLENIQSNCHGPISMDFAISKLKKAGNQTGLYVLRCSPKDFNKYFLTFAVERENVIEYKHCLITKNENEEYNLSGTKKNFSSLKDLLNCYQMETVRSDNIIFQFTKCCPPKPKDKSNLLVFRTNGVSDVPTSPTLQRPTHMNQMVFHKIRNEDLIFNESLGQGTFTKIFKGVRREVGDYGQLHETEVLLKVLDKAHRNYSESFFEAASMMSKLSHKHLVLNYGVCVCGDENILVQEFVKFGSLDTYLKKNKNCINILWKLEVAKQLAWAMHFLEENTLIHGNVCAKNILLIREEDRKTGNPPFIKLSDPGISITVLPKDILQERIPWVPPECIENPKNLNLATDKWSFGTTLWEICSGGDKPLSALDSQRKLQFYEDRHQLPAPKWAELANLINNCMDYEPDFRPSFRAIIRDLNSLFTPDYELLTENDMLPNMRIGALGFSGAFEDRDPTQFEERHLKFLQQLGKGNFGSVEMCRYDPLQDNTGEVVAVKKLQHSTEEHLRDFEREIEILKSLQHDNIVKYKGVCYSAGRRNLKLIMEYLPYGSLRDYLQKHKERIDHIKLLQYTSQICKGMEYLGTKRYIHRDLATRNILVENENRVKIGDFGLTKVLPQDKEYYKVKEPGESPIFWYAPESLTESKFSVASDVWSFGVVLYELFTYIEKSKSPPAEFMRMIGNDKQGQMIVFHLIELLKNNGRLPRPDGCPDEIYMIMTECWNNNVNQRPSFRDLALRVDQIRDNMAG

CC(C)CS(=O)(=O)N[C@H]1COC2C1OC[C@H]2Nc1nc(Nc2cnn(C)c2)ncc1Cl (stereo partly drawn) [Ex. 2, N-((3S,6R)-6-((5-chloro-2-((1-methyl-1H-pyrazol-4-yl)amino)pyrimidin-4-yl)amino)hexahydrofuro[3,2-b]furan-3-yl)-2-methylpropane-1-sulfonamide]
IC50 (FLT3 (h)): 846 nM
IC50 (JAK1 (h)): 43 nM
IC50 (JAK2 (h)): 350 nM

Cn1cc(Nc2ncc(Cl)c(N[C@@H]3COC4C3OC[C@@H]4NS(=O)(=O)CC3CC3)n2)cn1 (stereo partly drawn) [Ex. 25, N-((3S,6R)-6-((5-chloro-2-((1-methyl-1H-pyrazol-4-yl)amino)pyrimidin-4-yl)amino)hexahydrofuro[3,2-b]furan-3-yl)-1-cyclopropylmethanesulfonamide]
IC50 (JAK1 (h)): 27 nM

Cn1cc(Nc2ncc(Cl)c(N[C@@H]3COC4C3OC[C@@H]4NS(=O)(=O)CC(C)(C)C#N)n2)cn1 (stereo partly drawn) [Ex. 26, N-((3S,6R)-6-((5-chloro-2-((1-methyl-1H-pyrazol-4-yl)amino)pyrimidin-4-yl)amino)hexahydrofuro[3,2-b]furan-3-yl)-2-cyano-2-methylpropane-1-sulfonamide]
IC50 (JAK1 (h)): 94 nM

Cn1cc(Nc2ncc(Cl)c(N[C@@H]3COC4C3OC[C@@H]4NS(=O)(=O)CC(F)(F)F)n2)cn1 (stereo partly drawn) [Ex. 27, N-((3S,6R)-6-((5-chloro-2-((1-methyl-1H-pyrazol-4-yl)amino)pyrimidin-4-yl)amino)hexahydrofuro[3,2-b]furan-3-yl)-2,2,2-trifluoroethanesulfonamide]
IC50 (JAK1 (h)): 7 nM
